Source: ChEMBL document CHEMBL1159158, “Cyclic urea HIV protease inhibitors containing alkynyl- and alkenyl-tethered heterocycles in the P2 region” (Bioorg Med Chem Lett, 1996)

Experiments:
[1] = target: T1, Human immunodeficiency virus type 1 protease (Human immunodeficiency virus 1, UniProt Q72874); assay: Binding affinity to HIV-protease
[2] = target: Human immunodeficiency virus type 1 protease (Human immunodeficiency virus 1) (UniProt Q72874); assay: Compound was evaluated for its antiviral activity against HIV-Protease in cell based assay.
[3] = target: T1, Human immunodeficiency virus type 1 protease; assay: Compound was evaluated for binding affinity towards HIV-Protease enzyme.

SMILES | Ki [1] [µM] | IC90 [2] [µM] | Ki [3] [µM]
C#CCN1C(=O)N(CC#C)[C@H](Cc2ccccc2)[C@@H]2OC(C)(C)O[C@H]2[C@H]1Cc1ccccc1 | 0.022 |  | 
O=C1N(C/C=C/c2cn[nH]c2)[C@H](Cc2ccccc2)[C@H](O)[C@@H](O)[C@@H](Cc2ccccc2)N1C/C=C/c1cn[nH]c1 |  | 0.37 | 0.00025
O=C1N(CC#Cc2cccnc2)[C@H](Cc2ccccc2)[C@H](O)[C@@H](O)[C@@H](Cc2ccccc2)N1CC#Cc1cccnc1 | ≥ 1 |  | 
CC1(C)O[C@@H]2[C@@H](O1)[C@@H](Cc1ccccc1)N(CC#Cc1cnc3ccccc3c1)C(=O)N(CC#Cc1cnc3ccccc3c1)[C@@H]2Cc1ccccc1 | ≥ 1 |  | 
O=C1N(CC#Cc2ccsc2)[C@H](Cc2ccccc2)[C@H](O)[C@@H](O)[C@@H](Cc2ccccc2)N1CC#Cc1ccsc1 | ≥ 1 |  | 
CC1(C)O[C@@H]2[C@@H](O1)[C@@H](Cc1ccccc1)N(CC#Cc1cccnc1)C(=O)N(CC#Cc1cccnc1)[C@@H]2Cc1ccccc1 | ≥ 1 |  | 
CC(C)(C)OC(=O)n1cc(C#CCN2C(=O)N(CC#Cc3cnn(C(=O)OC(C)(C)C)c3)[C@H](Cc3ccccc3)[C@H](O)[C@@H](O)[C@H]2Cc2ccccc2)cn1 | ≥ 1 |  | 
O=C1N(C/C=C/c2cn[nH]c2)[C@H](Cc2ccccc2)[C@H](O)[C@@H](O)[C@@H](Cc2ccccc2)N1CC1CC1 |  | 0.82 | 0.00041
CC(C)N(CC#CCN1C(=O)N(CC#CCN(C(C)C)C(C)C)[C@H](Cc2ccccc2)[C@H](O)[C@@H](O)[C@H]1Cc1ccccc1)C(C)C | ≥ 1 |  | 
CC1(C)O[C@@H]2[C@@H](O1)[C@@H](Cc1ccccc1)N(CC#Cc1cc3ccccc3cn1)C(=O)N(CC#Cc1cc3ccccc3cn1)[C@@H]2Cc1ccccc1 | ≥ 1 |  | 
O=C1N(CC#Cc2cncnc2)[C@H](Cc2ccccc2)[C@H](O)[C@@H](O)[C@@H](Cc2ccccc2)N1CC#Cc1cncnc1 | ≥ 1 |  | 
CCN(CC)CC#CCN1C(=O)N(CC#CCN(CC)CC)[C@H](Cc2ccccc2)[C@H](O)[C@@H](O)[C@H]1Cc1ccccc1 | ≥ 1 |  | 
O=C1N(CC#Cc2cn[nH]c2)[C@H](Cc2ccccc2)[C@H](O)[C@@H](O)[C@@H](Cc2ccccc2)N1CC#Cc1cn[nH]c1 | ≥ 1 |  | 

Continued, in another order:

Ki [1] [µM] | SMILES | IC90 [2] [µM] | Ki [3] [µM]
≥ 1 | CC1(C)O[C@@H]2[C@@H](O1)[C@@H](Cc1ccccc1)N(CC#Cc1cncnc1)C(=O)N(CC#Cc1cncnc1)[C@@H]2Cc1ccccc1 |  | 
≥ 1 | COCCOCn1cc(C#CCN2C(=O)N(CC#Cc3cnn(COCCOC)c3)[C@H](Cc3ccccc3)[C@@H]3OC(C)(C)O[C@H]3[C@H]2Cc2ccccc2)cn1 |  | 
≥ 1 | CC(C)(C)OC(=O)n1cc(C#CCN2C(=O)N(CC#Cc3cnn(C(=O)OC(C)(C)C)c3)[C@H](Cc3ccccc3)[C@@H]3OC(C)(C)O[C@H]3[C@H]2Cc2ccccc2)cn1 |  | 
≥ 1 | CC1(C)O[C@@H]2[C@@H](O1)[C@@H](Cc1ccccc1)N(CC#Cc1ccsc1)C(=O)N(CC#Cc1ccsc1)[C@@H]2Cc1ccccc1 |  | 
≥ 1 | COCCOCn1cc(C#CCN2C(=O)N(CC#Cc3cnn(COCCOC)c3)[C@H](Cc3ccccc3)[C@H](O)[C@@H](O)[C@H]2Cc2ccccc2)cn1 |  | 
≥ 1 | CC1(C)O[C@@H]2[C@@H](O1)[C@@H](Cc1ccccc1)N(CC#Cc1cn[nH]c1)C(=O)N(CC#Cc1cn[nH]c1)[C@@H]2Cc1ccccc1 |  | 
≥ 1 | O=C1N(CC#Cc2cccs2)[C@H](Cc2ccccc2)[C@H](O)[C@@H](O)[C@@H](Cc2ccccc2)N1CC#Cc1cccs1 |  | 
≥ 1 | O=C1N(CC#CCN2CCCCC2)[C@H](Cc2ccccc2)[C@H](O)[C@@H](O)[C@@H](Cc2ccccc2)N1CC#CCN1CCCCC1 |  | 
≥ 1 | O=C1N(CC#CCN2CCOCC2)[C@H](Cc2ccccc2)[C@H](O)[C@@H](O)[C@@H](Cc2ccccc2)N1CC#CCN1CCOCC1 |  | 
≥ 1 | O=C1N(CC#Cc2cnc3ccccc3c2)[C@H](Cc2ccccc2)[C@H](O)[C@@H](O)[C@@H](Cc2ccccc2)N1CC#Cc1cnc2ccccc2c1 |  | 
≥ 1 | CC1(C)O[C@@H]2[C@@H](O1)[C@@H](Cc1ccccc1)N(CC#Cc1cccs1)C(=O)N(CC#Cc1cccs1)[C@@H]2Cc1ccccc1 |  | 
≥ 1 | CC(C)(C)OC(=O)C1CCCN1CC#CCN1C(=O)N(CC#CCN2CCCC2C(=O)OC(C)(C)C)[C@H](Cc2ccccc2)[C@H](O)[C@@H](O)[C@H]1Cc1ccccc1 (stereo partly drawn) |  | 
≥ 1 | O=C1N(CC#Cc2cc3ccccc3cn2)[C@H](Cc2ccccc2)[C@H](O)[C@@H](O)[C@@H](Cc2ccccc2)N1CC#Cc1cc2ccccc2cn1 |  | 
